Results reported in patent US20250296942A1, “Phosphonate-Based Coordination Complexes and Methods of Preparation and Use Thereof” (University of Puerto Rico, priority 2021, published 2025).

How the values were obtained:
[1] = system: human breast cancer MDA-MB-231 cell line; conditions: previously reported; cited from earlier work
[2] = system: human breast cancer MCF-7 cell line; assay: AlamarBlue cytotoxicity, 2,2′-BPBPA series, MCF-7; format: cell-based
Protocol: (§1) Cell culture methods. MCF-7 and MDA-MB-231 were incubated using DMEM at 37° C. in 5% CO2. The hFOB 1.19 cell lines were incubated with DMEM: F12 at 34° C. in 5% CO2.
(§2) Cell lines were supplemented using 10% FBS and 1% Pen-Strep. The media was replaced twice per week. Cell passages were carried out at 80% confluency.
(§3) Cell-based assays. Cell lines were seeded in 96 well plates at a density of 5x 10^3 cells/mL and incubated for 24 h before treatment. Cells were treated with 100 μL of 2,2′-BPBPA (0-400 μM), unloaded and loaded nano-Ca@2,2′-BPBPA (6.3-50 μM) for 24, 48, and 72 h.
(§4) Control groups were treated with media (DMEM or DMEM: F12) supplemented with 1% Pen-Strep. Cell viability was determined by employing AlamarBLue@. The media was replaced with 100 μL of 10% AlamarBlue® solution. After 24 h of incubation, the fluorescence was assessed at )max of 560 nm for excitation and 590 nm for emission.
(§5) Cell culture methods. MCF-7 and MDA-MB-231 were incubated using DMEM at 37° C. in 5% CO2. The hFOB 1.19 cell lines were incubated with DMEM: F12 at 34° C. in 5% CO2. Cell lines were supplemented using 10% FBS and 1% Pen-Strep. The media was replaced twice times per week. Cell passages were carried out at 80% confluency.
Seeding. Cell lines were seeded in 96 well plates at a density of 5×10^3 cells/mL; cells were incubated for 24 h before each treatment.
Treatment. Cell lines were treated with 100 μL of 2,2′-BPBPA (0-400 μM), unloaded and loaded nano-Ca@2,2′-BPBPA (6.3-50 μM). Control groups were treated with media (DMEM or DMEM: F12) supplemented with 1% Pen-Strep. All cell-based assays were conducted for 24, 48, and 72 h of treatment. Experiments were performed in triplicate.
AlamarBlue@assay. To determine the cell viability, the media was removed and replaced with 100 μL of 10% AlamarBlue® solution. The 96 well plates were incubated for 4 h before the measurements. Then, the fluorescence was assessed at 560 nm of excitation and λmax 590 nm of emission. The IC50 curves for MCF-7, MDA-MB-231, and hFOB 1.19 cell lines treated with 2,2′-BPBPA are presented in FIGS. 211A-211C, 212A-212C, and 213A-213C.

[3] = system: human osteoblast hFOB 1.19 cell line; assay: AlamarBlue cytotoxicity, BPBPA series, hFOB 1.19; format: cell-based; conditions: for IC50: Homo sapiens, Osteoblast
Protocol: Cell culture methods. MCF-7, MDA-MB-231, and hFOB 1.19 cell lines were incubated employing DMEM (37° C.) and DMEM: F12 (34° C.) medium, respectively, in a 5% CO2. Cell lines were supplemented using 10% FBS and 1% Pen-Strep and medium exchange was performed twice a week. Cell passages were carried out at 80% confluency.
Cell-based assays. Cell lines were seeded in 96 well plates at a density of 5×10^3 cells/mL, cells were incubated for 24 h before treatment. Both cell lines were treated with 100 μL of BPBPA (0-400 μM), LET (0-200 μM), unloaded and loaded nano-Ca@BPBPA (0-50 μM). All cell-based assays were performed for 24, 48, and 72 h of treatment. Control groups were treated with media (DMEM or DMEM: F12) supplemented with 1% Pen-Strep. Then, the media was removed and replaced with 100 μL of 10% AlamarBlue® solution. The 96 well plates were incubated for 4 h before measurements. Then, the fluorescence was assessed at 560 nm of excitation and λmax 590 nm of emission. The cell viability (%) was evaluated by contrasting the percentage of live cells of the control groups with the cells treated with BPBPA, LET, unloaded and loaded nano-Ca@BPBPA. The half-maximal inhibitory concentration (IC50) was determined for BPBPA and letrozole employing the dose-response curves (% cell live vs. concentration). The relative cell live (% RCL) was assessed for the unloaded and loaded nano-Ca@BPBPA, utilizing LET as a control group. The IC50 and % RCL were plotted using the GraphPad Prism software vs. 9.3.0.
The cytotoxicity of BPBPA (control), LET (control), nano-Ca@BPBPA (control), and drug-loaded nano-Ca@BPBPA (experimental) was investigated employing the human breast cancer, MCF-7 and MDA-MB-231, and the human osteoblast, hFOB 1.19, cell lines. The human MCF-7 cell line represents an ER-positive breast cancer model with estrogen, progesterone, and glucocorticoid receptors.^1 While, the human MDA-MB-231 cells correspond to a model of ER-negative breast cancer. Both selected cancer cell lines can be implicated in the development and progress of bone metastases in patients.^40,41 The human fetal hFOB 1.19 cells represent a homogeneous osteoblast-like (non-cancerous) model commonly employed to assess osteoblast differentiation.^42 The cytotoxicity of these materials was evaluated by determining the IC50 and % RCL. […] Similar results were found for MDA-MB-231 and hFOB 1.19 cell lines treated with LET (IC50 >200 μM) at the same time points (Supporting Information).
Cell culture methods. MCF-7 and MDA-MB-231 were incubated employing DMEM media at 37° C. in 5% CO2. The hFOB 1.19 cell lines were incubated using DMEM: F12 at 34° C. in 5% CO2. […]
AlamarBlue@assay. […] Then, the fluorescence was assessed at 560 nm of excitation and λmax 590 nm of emission.

[4] = system: human osteoblast hFOB 1.19 cell line; assay: AlamarBlue cytotoxicity, 2,2′-BPBPA series, hFOB 1.19; format: cell-based
Protocol: as §1, §2, §3, §4, §5
Seeding. […]
AlamarBlue@assay. […] Then, the fluorescence was assessed at 560 nm of excitation and λmax 590 nm of emission. […]

SMILES | IC50 [1] | % RCL ([2]; 6.3 μM, 24 h) | % RCL ([2]; 6.3 μM, 48 h) | % RCL ([2]; 6.3 μM, 72 h) | % RCL ([2]; 12.5 μM, 24 h) | % RCL ([2]; 12.5 μM, 48 h) | % RCL ([2]; 12.5 μM, 72 h) | % RCL ([2]; 25 μM, 24 h) | % RCL ([2]; 25 μM, 72 h) | % RCL ([2]; 50 μM, 24 h) | % RCL ([2]; 50 μM, 72 h) | % RCL ([3]; 12.5 μM, 72 h) | IC50 ([3]; 24 h) | IC50 ([3]; 48 h) | IC50 ([3]; 72 h) | % RCL ([4]; 6.3-50 μM, 24, 48, 72 h) | IC50 ([2]; Homo sapiens, MCF7, 72 h) | IC50 ([4]; Homo sapiens, Osteoblast, 72 h)
N#Cc1ccc(C(c2ccc(C#N)cc2)n2cncn2)cc1 [LET, letrozole] | > 200 µM | about 100±2% | ~79 ±1% | ~74±3% | 100±2% | 71±3% | 68±2% | 100±1% | 46±2% | 99±1% | 40±1% | 100±1% | > 200 µM | > 200 µM | > 200 µM | ~99% | – | –
O=P(O)(O)c1ccc(-c2ccc(P(=O)(O)O)cn2)nc1 [2,2′-BPBPA, 2,2′-bipyridine-5,5′-bisphosphonic acid] | – | – | – | – | – | – | – | – | – | – | – | – | – | – | – | – | 134 ± 2 µM | > 188 µM
